Laboratory results taken from PMC4708017, “Antiplasmodial activity of iron(II) and ruthenium(II) organometallic complexes against Plasmodium falciparum blood parasites” (Memórias do Instituto Oswaldo Cruz, 2015).
Like-named read-outs stand apart in the source and are kept apart here.

Tests used:
[1] = test system: HepG2 human hepatoma cells
Procedure: The SI was calculated in order to give an insight into the therapeutic index of the molecules, i.e., how far the toxic concentration is from the therapeutic one.

[2] = octanol/water partition coefficient (log P o/w) by HPLC; format: physicochemical; conditions: determined for the first time in this paper
From the text: Measurement of lipophilicity data - Measurements of the octanol/water partition coefficient (log P o/w) were made by the HPLC technique according to a method described previously ([Minick et al. 1988], [Pomper et al. 1990]). Measurement of the chromatographic capacity factors (k) for each molecule was done at various concentrations in the range of 95-75% methanol containing 0.25% (v/v) 1-octanol, and an aqueous phase consisting of 0.15% (v/v) n-decylamine in the buffering agent 3-morpholinopropane-1-sulfonic acid (MOPS) prepared in 1-octanol saturated water adjusted to pH 7.4. These capacity factors (k’) are extrapolated to 100% of the aqueous component given the value of k’. The logP o/w is obtained by the formula logP o/w = 0.13418 + 0.98452 logk’.

[3] = test system: Plasmodium falciparum blood forms (W2 clone, chloroquine-resistant); test: in vitro antiplasmodial activity, anti-histidine-rich protein II assay; format: cell-based
Procedure: Continuous culture of P. falciparum and in vitro tests of drug activity - Blood-stage P. falciparum parasites, W2 clone CQ-resistant ([Oduola et al. 1988]), maintained according to [Trager & Jensen (1976)], were used in the drug activity tests after sorbitol-synchronisation ([Lambros & Vanderberg 1979)]. The antiplasmodial activity of the compounds was determined relative to control parasites kept in culture medium only ([Rieckmann et al. 1978)] through the anti-histidine-rich protein II assay ([Noedl et al. 2002)]. The IC50 of parasite growth was determined through sigmoidal dose-response curves built by curve-fitting software (Microcal Origin Software v.5.0). […]

[4] = P. falciparum W2 clone, CQ-resistant, blood-stage, anti-HRPII assay, read-out: IC50 Pf

Compound	cytotoxicity class (by MLD50) [1]	log P [2]	IC50 [3, 4] [µM]	IC50 ([3]; Plasmodium falciparum, W2, read-out: IC50 Pf) [µM]	antiplasmodial activity class ([3]; P. falciparum W2, class based on IC50)	IC50 ([3]; Plasmodium falciparum, W2, P. falciparum W2 clone, CQ-resistant, blood-stage, anti-HRPII assay, read-out: IC50 Pf) [µM]
1-[(4-(3-dimethylaminopropoxy)phenyl-phenyl)methylidene][3]ferrocenophane [Compound 8]	toxic (those having MLD50< 100 mM were considered toxic)	3.46	5.9 ± 1.6	–	–	–
CCN(CC)CCCC(C)Nc1ccnc2cc(Cl)ccc12 (stereo not shown) [CQ, chloroquine, reference compound]	–	–	–	0.1 ± 0.02	–	–
CCC(=C(c1ccccc1)c1ccccc1)c1ccccc1 [Compound 1]	–	–	83 ± 5	–	inactive	> 60
